Data set [1] can be described thus: Clearance in rat at 1 mg/kg, iv. Format: ADME, organism-based. Details: dose 1 mg/kg, route intravenous. Conditions: in vivo.
Data set [2] deals with T1, Bile acid receptor (Homo sapiens) (UniProt Q96RI1).
T1 sequence (whole entry): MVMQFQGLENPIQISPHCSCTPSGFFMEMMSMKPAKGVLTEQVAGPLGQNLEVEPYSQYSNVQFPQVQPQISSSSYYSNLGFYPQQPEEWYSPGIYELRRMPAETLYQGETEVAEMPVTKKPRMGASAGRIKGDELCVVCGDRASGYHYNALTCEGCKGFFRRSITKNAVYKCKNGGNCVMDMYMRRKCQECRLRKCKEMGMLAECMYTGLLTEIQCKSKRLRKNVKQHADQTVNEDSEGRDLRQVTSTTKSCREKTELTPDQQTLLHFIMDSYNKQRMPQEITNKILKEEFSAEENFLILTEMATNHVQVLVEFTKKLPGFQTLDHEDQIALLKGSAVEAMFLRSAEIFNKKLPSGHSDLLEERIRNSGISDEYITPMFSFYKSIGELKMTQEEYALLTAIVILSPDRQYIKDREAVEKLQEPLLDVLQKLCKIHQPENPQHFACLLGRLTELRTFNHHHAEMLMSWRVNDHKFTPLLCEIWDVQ
The data set is described as follows: Agonist activity at human amino-terminal polyhistidine-tagged FXR alpha LBD (amino acids 237 to 472) assessed as maximum efficacy measuring cofactor peptide SRC-1 interaction with receptor ligand binding domain after 2 hrs by FRET assay relative to GW4064.

Data set [3] in a line: Volume of distribution at steady state in rat at 1 mg/kg, iv. Details: dose 1 mg/kg, route intravenous. The class given is ADME, organism-based. Conditions: in vivo, read-out: Vdss.
Data set [4] has as its system Rattus norvegicus. Put plainly: Dose normalized AUC in rat at 5 mg/kg, po. Format: ADME, organism-based. Details: dose 5 mg/kg, route oral. Conditions: in vivo.
In data set [5] the target is T1, Bile acid receptor (Homo sapiens). The data set is described as follows: Agonist activity at human FXR LBD transfected in african green monkey CV1 cells assessed as maximum efficacy after overnight incubation by luciferase reporter gene assay relative to GW4064. The class given is functional, cell-based. Conditions: CV-1.
Data set [6] can be described thus: Terminal half life in rat at 1 mg/kg, iv. Details: dose 1 mg/kg, route intravenous. Format: ADME, organism-based. Conditions: in vivo, read-out: beta t1/2.
The target in data set [7] is T2, Bile acid receptor (Homo sapiens, UniProt Q96RI1).
T2 sequence (Q96RI1 whole entry): T1 sequence (whole entry)
The data set is described as follows: Agonist activity at human FXR LBD transfected in african green monkey CV1 cells after overnight incubation by luciferase reporter gene assay. Format: functional, cell-based, CV-1. In general terms: In a reporter assay the amount or activity of a reporter protein is the signal.

Data set [8] is described as follows: Oral bioavailability in rat at 5 mg/kg. Format: ADME, organism-based. Conditions: in vivo.
The target in data set [9] is T2, Bile acid receptor. Put plainly: Agonist activity at human amino-terminal polyhistidine-tagged FXR alpha LBD (amino acids 237 to 472) assessed as cofactor peptide SRC-1 interaction with receptor ligand binding domain after 2 hrs by FRET assay.
The nature of data set [10]: Selectivity for human FXR over LXR alpha receptor.
Data set [11] is described as follows: Selectivity for human FXR over LXR beta receptor.
Data set [12] is described as follows: Selectivity for human FXR over PXR receptor.
Data set [13] can be described thus: Inhibition of Cytochrome P450. Format: ADME.
Data set [14] can be described thus: Selectivity for human FXR over PPAR delta receptor.
A short description of data set [15]: Selectivity for human FXR over PPAR gamma receptor.
The nature of data set [16]: Selectivity for human FXR over PPAR alpha receptor.

The source of these data is ChEMBL document CHEMBL1833944, “Conformationally constrained farnesoid X receptor (FXR) agonists: alternative replacements of the stilbene” (Bioorg Med Chem Lett, 2011).

Molecules are shown by their SMILES. Where only a bound is given, the exact number is not on record here.

As for `CC(C)c1onc(-c2c(Cl)cccc2Cl)c1COc1ccc(-c2ccc3nc(C(=O)O)ccc3c2)cc1`, the clearance in data set [1] turned out to be 32 mL/min/kg. For the same molecule, the Emax in data set [2] was 105%; in data set [5], 102%. Also, in data set [3], the Vd is 3.4 L/kg. Also, the AUC/dose in data set [4] was determined as 130 ng·kg·h/mL/mg. Also, the half-life in [6] was determined as 170 min.

Turning to `CC(C)c1onc(-c2c(Cl)cccc2Cl)c1COc1ccc(-c2ccc3cc(C(=O)O)[nH]c3c2)cc1`, the EC50 in [7] came out at 140 nM; in data set [9], 210 nM. The bioavailability in data set [8] was found to be 3%. The same molecule had a clearance in data set [1] of 30 mL/min/kg. The figures for the Emax in data set [2] and in data set [5] were 96% and 69%, respectively. Moreover, the Vd in [3] amounted to 0.5 L/kg. Besides, the AUC/dose in data set [4] was found to be 16 ng·kg·h/mL/mg. In data set [6], the half-life was 70 min.

On to `CC(C)c1onc(-c2c(Cl)cccc2Cl)c1COc1ccc(-c2ccc3[nH]c(C(=O)O)cc3c2)cc1`, for which the EC50 in data set [7] worked out at 110 nM; in data set [9], 88 nM. In [8], this molecule had a bioavailability of 7.1%. This molecule showed a clearance in data set [1] of 55 mL/min/kg. Besides, the Emax in data set [2] was determined as 81%; in data set [5], 78%. In addition, the Vd in [3] was 1.3 L/kg. The same molecule registered an AUC/dose in [4] of 22 ng·kg·h/mL/mg. For the same molecule, in [6], the half-life is 89 min.

Turning to `CC(C)c1onc(-c2c(Cl)cccc2Cl)c1COc1ccc(-c2ccc3c(C(=O)O)c[nH]c3c2)cc1`, the fold change (FC) in data set [10], in [11], in [12], in data set [14], in [15] and in data set [16] was over 100 each time. Moreover, the EC50 worked out at 31 nM in [7] and 20 nM in [9]. The molecule further had a bioavailability in data set [8] of 5.1%. Moreover, the IC50 in data set [13] was over 5 µM. This molecule had a clearance in data set [1] of 76 mL/min/kg. Besides, the Emax in data set [2] is 107%; in [5], 35%. For the same molecule, the Vd in [3] came to 1.2 L/kg. The molecule also registered an AUC/dose in data set [4] of 11 ng·kg·h/mL/mg. In addition, the half-life in [6] was found to be 26 min.

Take `CC(C)c1onc(-c2c(Cl)cccc2Cl)c1COc1ccc(-c2ccc3c(c2)CC(C(=O)O)C3)cc1` (stereo not given): the EC50 in [7] is 490 nM; in data set [9], 750 nM. For the same molecule, the Emax came out at 75% in data set [2] and 59% in [5].

As for `CC(C)c1onc(-c2c(Cl)cccc2Cl)c1COc1ccc(-c2ccc3c(C(=O)O)csc3c2)cc1`, the EC50 in data set [7] stood at 24 nM; in data set [9] it was 21 nM. Moreover, in data set [8], the bioavailability stood at 0%. Further, the clearance in data set [1] came to 50 mL/min/kg. The Emax in data set [2] was found to be 115%; in data set [5] it was 81%. In addition, in [3], the Vd stood at 0.73 L/kg. The molecule also came in with an AUC/dose in data set [4] of 0 ng·kg·h/mL/mg. Moreover, in data set [6], the half-life amounted to 22 min.

In the case of `CC(C)c1onc(-c2c(Cl)cccc2Cl)c1COc1ccc(Sc2cccc3sc(C(=O)O)cc23)cc1`, the EC50 in data set [7] stood at 990 nM; in data set [9] it was 190 nM. The Emax in data set [2] was 72%; in data set [5], 59%.

As for `CC(C)c1onc(-c2c(Cl)cccc2Cl)c1COc1ccc(-c2ccc3c(c2)CCCC3C(=O)O)cc1` (stereo not given), the EC50 in [7] was determined as 750 nM; in data set [9] it was 550 nM. Moreover, the figures for the Emax in data set [2] and in [5] were 72% and 68%, respectively.

For the molecule `CC(C)c1onc(-c2c(Cl)cccc2Cl)c1COc1ccc(Cn2ccc3ccc(C(=O)O)cc32)cc1`, the EC50 came out at 500 nM in data set [7] and 1000 nM in data set [9]. Moreover, the figures for the Emax in data set [2] and in [5] were 38% and 42%, respectively.

With `CC(C)c1onc(-c2c(Cl)cccc2Cl)c1COc1ccc(-c2nc3cccc(C(=O)O)c3[nH]2)cc1`, the EC50 is 1300 nM in [7] and 1200 nM in data set [9]. In addition, the values for the Emax in [2] and in [5] were 61% and 36%, respectively.

In the case of `CC(C)c1onc(-c2c(Cl)cccc2Cl)c1COc1ccc(-c2ccc3oc(C(=O)O)cc3c2)cc1`, the EC50 in data set [7] is 130 nM; in data set [9], 51 nM. The molecule also showed a bioavailability in data set [8] of 20%. For the same molecule, in data set [1], the clearance amounted to 78 mL/min/kg. Further, the Emax in [2] came out at 93%; in data set [5], 90%. Further, the Vd in data set [3] worked out at 1.7 L/kg. Besides, the AUC/dose in data set [4] is 43 ng·kg·h/mL/mg. Further, the half-life in data set [6] worked out at 61 min.

Turning to `CC(C)c1onc(-c2c(Cl)cccc2Cl)c1COc1ccc(/C=C/c2cccc(C(=O)O)c2)c(Cl)c1`, the Emax in data set [2] and in data set [5] was 100% throughout.

`CC(C)c1onc(-c2c(Cl)cccc2Cl)c1COc1ccc(-c2ccc3sc(C(=O)O)cc3c2)cc1`: the EC50 in [7] came out at 530 nM; in [9], 250 nM. Further, the Emax was found to be 77% in data set [2] and 91% in data set [5].

`CC(C)c1onc(-c2c(Cl)cccc2Cl)c1COc1ccc(-c2ccc3sc(C(=O)O)cc3n2)cc1`: the EC50 in data set [7] was found to be 1700 nM; in [9], 670 nM. The Emax was found to be 53% in data set [2] and 82% in [5].

As for `CC(C)c1onc(-c2c(Cl)cccc2Cl)c1COc1ccc(-c2ccc3c(C(=O)O)cccc3c2)cc1`, the Emax came to 134% in [2] and 104% in data set [5].

As a reminder, the clearance is the volume of plasma or blood freed of the substance per unit of time. As usually defined, the Emax is the maximal effect, on the per cent scale that the assay sets. Usually EC50 stands for the concentration at which the effect is half-maximal. By bioavailability is commonly meant the share of a dose that reaches the circulation, judged against a reference dose that is usually intravenous. One may read the IC50 as the concentration needed to halve the response being measured.
